In publication PMC8913831 (Scientific Reports, 2022):

Molecular target: T1, CbCBP (cellobiose phosphorylase) (Caldicellulosiruptor bescii, UniProt A0ABY1SBL4)
T1 construct: gene SAMN05216240_2653; C-terminal (His)6 tag, pET20b, E. coli BL21 CodonPlus-RIL; 94 kDa on SDS-PAGE, about 200 kDa native (homodimer); GH94
T1 sequence (A0ABY1SBL4 1-811): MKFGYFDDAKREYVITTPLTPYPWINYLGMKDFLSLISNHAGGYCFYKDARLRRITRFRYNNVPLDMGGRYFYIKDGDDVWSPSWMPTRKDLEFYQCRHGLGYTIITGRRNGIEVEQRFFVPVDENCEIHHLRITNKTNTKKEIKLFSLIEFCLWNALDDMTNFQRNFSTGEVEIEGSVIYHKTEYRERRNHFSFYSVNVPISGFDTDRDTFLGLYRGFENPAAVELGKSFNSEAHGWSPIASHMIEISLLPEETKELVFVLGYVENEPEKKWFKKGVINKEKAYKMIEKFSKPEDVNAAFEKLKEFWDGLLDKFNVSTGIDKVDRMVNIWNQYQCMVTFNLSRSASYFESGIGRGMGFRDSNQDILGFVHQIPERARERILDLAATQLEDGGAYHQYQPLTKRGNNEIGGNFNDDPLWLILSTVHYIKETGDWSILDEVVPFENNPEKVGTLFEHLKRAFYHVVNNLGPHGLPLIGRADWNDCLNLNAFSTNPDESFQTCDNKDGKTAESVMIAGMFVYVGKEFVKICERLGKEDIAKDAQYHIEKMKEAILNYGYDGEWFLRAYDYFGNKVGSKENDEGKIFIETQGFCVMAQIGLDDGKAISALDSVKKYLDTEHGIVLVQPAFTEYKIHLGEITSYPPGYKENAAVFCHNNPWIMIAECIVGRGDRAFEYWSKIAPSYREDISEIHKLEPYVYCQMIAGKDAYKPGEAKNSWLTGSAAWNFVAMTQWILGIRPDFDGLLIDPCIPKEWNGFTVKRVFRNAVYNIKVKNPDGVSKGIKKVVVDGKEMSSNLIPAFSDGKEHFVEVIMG
Experiment: initial velocity, D-glucose release (glucose oxidase-peroxidase), fit to ordered Bi Bi equation
Format: biochemical
Settings: phosphorolysis; substrate constant of the ordered Bi Bi rate equation with A = cellobiose, not an inhibitor constant; text states Pi binds first; MES-NaOH pH 7.0; 75 °C in Methods, 70 °C in Results
Source text: initial velocity, D-glucose release (glucose oxidase-peroxidase), fit to ordered Bi Bi equation on CbCBP (cellobiose phosphorylase)

- Ki^A: 3.3 mM
Structure (SMILES): OC[C@H]1O[C@@H](O[C@H]2[C@H](O)[C@@H](O)C(O)O[C@@H]2CO)[C@H](O)[C@@H](O)[C@@H]1O (stereo partly shown) [cellobiose]
